According to US5317019A, “Inhibition of interleukin-1 and tumor necrosis factor production by monocytes and/or macrophages” (priority 1991, dated 1994):
pIC50: −log10 of the molar value.

Key:
[1] = test system: arachidonic acid-induced inflammation; details: literature (Griswold et al.); cited from earlier work
[2] = test system: IL-1 production by human monocytes; details: literature (Lee et al.); in words; cited from earlier work
[3] = test system: cyclooxygenase; details: literature (Lee et al.); cited from earlier work
[4] = test system: 5-lipoxygenase; details: literature (Lee et al.); cited from earlier work
[5] = test system: arachidonic acid-induced mouse ear swelling; test: Arachidonic acid-induced mouse ear swelling (p.o.); assay type: in vivo; details: 50 mg/kg p.o.; *** p less than 0.001
Experimental: ^a Mouse ear edema was measured as described in Griswold et al.,
Inflammation, II(2), 189-199 (1987), the disclosure of which is hereby
incorporated by reference.

[6] = test system: IL-1 production by human monocytes; test: In vitro IL-1 production by LPS-stimulated human monocytes; assay type: cell-based; details: Homo sapiens, Monocyte; Table 1; LPS 50 ng/ml, 24 h; read-out: IC50, effect on LPS-stimulated IL-1 production by human monocytes
Experimental: Bacterial lipopolysaccharide (LPS) was used to induce IL-1 production by human peripheral blood monocytes. IL-1 activity was measured by its ability to stimulate a Interleukin 2 (IL-2) producing cell line […] to secrete IL-2, in concert with A23187 ionophore, according to the method of Simon et al., J. Immunol. […] The cells were allowed to adhere for 2 hours, after which time non-adherent cells were removed by gentle washing. […] At the end of the incubation period, culture supernatants were removed and clarified of cells and all debris.

[7] = test system: TNF production by human monocytes; test: In vitro TNF production by LPS-stimulated human monocytes (ELISA); assay type: cell-based; details: Homo sapiens, Monocyte; Table B; LPS 50 ng/ml, 24 h; read-out: IC50, LPS induced TNF human monocyte data
Experimental: The effects of the compounds enumerated above on the in vitro production of TNF by human monocytes was examined using the following protocol.
Bacterial lipopolysaccharide (LPS) was used to induce TNF production by human peripheral blood monocytes. TNF activity was measured by a modification of Winston et al., ELISA, described below. […] The cells were allowed to adhere for 2 hours, after which time non-adherent cells were removed by gentle washing. […] At the end of the incubation period, culture supernatants were removed and clarified of cells and all debris. Culture supernatants were immediately assayed for TNF levels in the manner described below.
The Elisa employes a murine monoclonal anti-human TNF antibody, described below, as the capture antibody and a polyclonal rabbit anti-human TNF, described below, as the second antibody. […] TNF levels in samples were calculated from a standard curve genereated with recombinant human TNF produced in E. Coli (obtained from SmithKIine Beecham Pharmaceuticals, King of Prussia, Pa., USA).
Polyclonal rabbit anti-human TNF antibodies were prepared by repeated immunization of New Zeland White (NZW) rabbits with recombinant human TNF emulsified in complete Freund's adjuvant (DEFCO, Ill., USA).

[8] = test system: endotoxin shock in mice; test: In vivo endotoxin shock models (P. acnes and/or LPS-GAL); design: species or system mouse (C57BL/6); details: one or both in vivo models
From the text: (§1) Two models of endotoxin shock have been utilized to determine in vivo TNF activity and are described below. The actual protocol used in the models is described in Utility Model Examples A and B set out below, i.e. P. acnes model and LPS-GAL model.
The protocol used to test the compound of the method of the subject invention was essentially as has been described in Galanos et al., Proc. Nat'l Acad. Sci USA, 76:5939-43 (1979) whose disclosure is herein incorporated by reference. Briefly, D-gal […] sensitizes various strains of mice to the lethal effects of endotoxin. The administration of D-gal (300-500 mg/kg) intravenously (i.v.) sensitizes the mice to doses of Lipopolysaccharide(LPS ) as low as 0.1 mg. Briefly, male C57BL/6 mice, obtained from Charles River Laboratories (Stone Ridge, N.Y., USA) of 6-12 weeks of age were injected i.v. with 0.1 mg of LPS from Salmonella typhosa (Difco Laboratories, Detroit, Mich., USA) admixed with D(+)-gal (Sigma; 500 mg/kg) in 0.20-0.25 ml pyrogen-free saline. Compounds to be tested were administered at various times prior to or following the i.v. injection of LPS/D-gal. In this model, the control animals usually die 5-6 hr. following the injection of LPS, although on occasion deaths are seen between 24 and 48 hr.
(§2) This model is a modification of the previously described protocol for the in vivo induction of TNF as described in Haranaka et al., Cancer Immunol Immunother. 18:81-90, (1984). Treatment with Proprionibacterium Acnes (P. acnes) (1 mg/animal i.p.) renders mice susceptible to the lethal effects of LPS injected 10 days later.
(§3) P. acnes was purchased from Burroughs Wellcome (Triangle Park, N.C., USA), and […] of the heat-killed bacteria was administered in 0.5 ml pyrogen-free saline by intraperitoneal (i.p.) injection to male C57BL/6 mice, obtained from Charles River Laboratories (Stone Ridge, N.Y., USA) of 6-12 weeks of age. Ten days later, the mice were injected i.v. with 1 mg LPS in 0.25 ml saline. Compounds to be tested were administered at various times prior to or following the injection of LPS. The survival of animals was monitored for 1 week.
Plasma levels of TNF were measured using a modification of the basic sandwich ELISA method described in Winston et al., Current Protocols in Molecular Biology, Pg. 11.2.1, Ausubel et al., Ed. (1987) John Wiley and Sons, New York, USA. The Elisa employed a hampster monoclonal anti-mouse TNF (Genzyme, Boston, Mass., USA ) as the capture antibody and a polyclonal rabbit anti-murine TNF (Genzyme, Boston, Mass., USA ) as the detecting antibody. TNF levels in rat samples were calculated from a standard curve generated with recombinant murine TNF (Genzyme, Boston, Mass., USA). TNF levels determined by ELISA correlated with levels detected by the L929 bioassay of Ruff et. al., J. Immunol. 125:1671-1677 (1980), with 1 Unit of activity in the bioassay corresponding to 70 picograms (pg) of TNF in the ELISA. The ELISA detected levels of TNF down to 25 pg/ml.

[9] = test system: serum TNF in P. acnes-sensitized mice; test: P. acnes/LPS endotoxin shock model, serum TNF; assay type: in vivo, mouse (C57BL/6); details: P. acnes/LPS treated mice, oral dosage, FIG. 1
From the text: as §1
Endotoxin Shock in P. acnes-Sensitized Mice
as §2
as §3, with “Ten days later, the mice were injected i.v. with 1 mg LPS in 0.25 ml saline. Compounds to be tested were administered at various times prior to or following the injection of LPS.” left out
Plasma levels of TNF were measured using a modification of the basic sandwich ELISA method described in Winston et al., Current Protocols in Molecular Biology, Pg. […] TNF levels in rat samples were calculated from a standard curve generated with recombinant murine TNF (Genzyme, Boston, Mass., USA). TNF levels determined by ELISA correlated with levels detected by the L929 bioassay of Ruff et. al., J. Immunol. […]

[10] = test system: endotoxin shock in D-gal-sensitized mice; test: LPS-GAL endotoxin shock model (D-gal-sensitized mice); assay type: in vivo, mouse (C57BL/6)
From the text: as §1
Endotoxin Shock in D-gal-Sensitized Mice
The protocol used to test the compound of the method of the subject invention was essentially as has been described in Galanos et al., Proc. Nat'l Acad. Sci USA, 76:5939-43 (1979) whose disclosure is herein incorporated by reference. Briefly, D-gal […] sensitizes various strains of mice to the lethal effects of endotoxin. The administration of D-gal (300-500 mg/kg) intravenously (i.v.) sensitizes the mice to doses of Lipopolysaccharide(LPS ) as low as 0.1 mg. […]
Plasma levels of TNF were measured using a modification of the basic sandwich ELISA method described in Winston et al., Current Protocols in Molecular Biology, Pg. […] TNF levels in rat samples were calculated from a standard curve generated with recombinant murine TNF (Genzyme, Boston, Mass., USA). TNF levels determined by ELISA correlated with levels detected by the L929 bioassay of Ruff et. al., J. Immunol. […] The ELISA detected levels of TNF down to 25 pg/ml.

Compound | Percent inhibition of arachidonic acid-induced mouse ear swelling [5] [%] | pIC50 [6] | pIC50 [7] | Inhibition of in vivo TNF levels / in vivo activity [8] | Protection from lethal effects of endotoxin shock [8] | further results
Fc1ccc(-c2nc3n(c2-c2ccncc2)CCS3)cc1 [5-(4-pyridyl)-6(4-fluorophenyl)-2,3-dihydroimidazo(2,1-b)thiazole] | – | – | – | – | – | Effects on the edematous and cellular component of arachidonic acid-induced inflammation [1]: inhibitory effects; Inhibition of IL-1 production by LPS-stimulated human monocytes [2]: potent inhibitor of IL-1 production; Inhibition of cyclooxygenase-mediated arachidonate metabolism [3]: inhibits; Inhibition of 5-lipoxygenase-mediated arachidonate metabolism [4]: inhibits
CSc1ccc(-c2nc3n(c2-c2ccncc2)CCC3)cc1 [Compound 1, 2-(4-methylthiophenyl)-3-(4-pyridyl)-6,7-dihydro-[5H]-pyrrolo-[1,2-a-]-imidazole] | 56 | 5.70 | 6.00 | – | – | –
C[S+]([O-])c1ccc(-c2nc3n(c2-c2ccncc2)CCC3)cc1 (stereo not drawn) [Compound 2, 2-(4-methylsulfinylphenyl)-3-(4-pyridyl)-6,7-dihydro-[5H]-pyrrolo-[1,2-a]-imidazole] | 44 | < 5.00 | < 5.00 | in vivo activity | protection from the lethal effects of endotoxin shock | Reduction in serum / in vivo TNF levels [9]: decreased levels of in vivo TNF relative to increased oral dosage; Reduction of serum TNF levels ([10]; 100 mg/kg, FIG. 3): reduction of serum TNF levels; Survival rate of animals with endotoxic shock ([10]; FIG. 4, control group 30%): 100%
CCSc1ccc(-c2nc3n(c2-c2ccncc2)CCC3)cc1 [Compound 3] | 56 | 5.70 | – | – | – | –
CC[S+]([O-])c1ccc(-c2nc3n(c2-c2ccncc2)CCC3)cc1 (stereo not drawn) [Compound 4] | 41 | < 5.00 | 5.15 | inhibited in vivo TNF levels | protected the animals from endotoxic induced shock | –
CSc1ccc(-c2nc3n(c2-c2ccnc(C)c2)CCC3)cc1 [Compound 5, 2-(4-methylthiophenyl)-3-(4-(2-methyl)pyridyl)-6,7-dihydro-[5H]-pyrrolo-[1,2-a-]-imidazole] | 59 | 5.57 | 5.15 | inhibited in vivo TNF levels | protected the animals from endotoxic induced shock | –
Cc1cc(-c2c(-c3ccc([S+](C)[O-])cc3)nc3n2CCC3)ccn1 (stereo not drawn) [Compound 6, 2-(4-methylsulfinylphenyl)-3-(4-(2-methyl)-pyridyl)-6,7-dihydro-[5H]-pyrrolo-[1,2-a]-imidazole] | 59 | < 5.00 | – | – | – | –
CC(Cc1ccc(O)c(O)c1)C(C)Cc1ccc(O)c(O)c1 (stereo not drawn) [nordihydroguaiaretic acid] | – | – | – | – | – | Inhibition of IL-1 production by LPS-stimulated human monocytes [2]: with the exception of nordihydroguaiaretic acid, were inactive
